Measured values taken from patent US7901936B2, “Method for stimulating self-renewal of neural stem cells and enhancing neurogenesis” (Albany Medical College, priority 2004, dated 2011).
Starred links: 1 amine or outer side, 2 acyl side, 3 side chain; linkers in the order of their positions; H or OH if unused. Non-standard residues stand in square brackets, D forms with d. Residues, ends and D or L forms follow the SMILES beside them. *: point of attachment. X1 = CC(N[*:1])C(=O)C(F)(F)C(=O)[*:2]; Boc = CC(C)(C)OC(=O)*

Legend:
[1] = test system: BPAE co-culture clones (cortical stem cells); assay: Inhibition of Notch activation in endothelial co-cultured cortical stem cell clones; format: cell-based, mouse; conditions: BPAE co-culture clones treated for 6 hours, 50 μM, vs DMSO vehicle
Procedure: γ-secretase inhibitor II (Calbiochem, 50 μM) in DMSO was added to co-cultured cells after 4 days for 6 hours. The same amount of DMSO was used as vehicle control. The cells were then fixed and stained for β-tubulin III and double-labelled for Nestin or β-catenin, and the stained cells were quantified.

[2] = test system: cortical stem cell clones; assay: Clonal growth of cortical stem cells with added soluble growth factors (without feeder cells); format: cell-based, mouse; conditions: for duplication of the effect of endothelial co-culture on clonal growth: factor added at 10-50 ng/ml to serum-free medium with FGF2, no feeder cells
Procedure: Embryonic cerebral cortices and adult SVZ were dissected and dissociated as described (18-20). Single cells were plated into poly-l-lysine-coated 6-well plates (Costar) at clonal density (2000-4000 cells/well) and cultured in basal serum-free medium consisting of DMEM, B27, N2, NAC and 10 ng/ml FGF2 (19,20). To test the effects of soluble growth factors (PDGF, CNTF, TGFβ, IGF1, IL1, IL6, G-CSF, M-CSF, GM-CSF, LIF, BDNF, Steel factor, VEGF or EGF), each factor was added to serum-free medium with FGF2 at a range of 10-50 ng/ml, and clonal growth (cell number and generation of neurons and glia) was assessed (without co-cultured feeder cells). LIF and VEGF were also tested in combination, each added at 10 ng/ml into serum-free medium, with and without FGF2.

| Compound | duplication of the effect of endothelial co-culture on clonal growth [2] | further results |
| --- | --- | --- |
| CCC(C)C(NC(=O)C(NC(=O)OC(C)(C)C)C(C)C)C(=O)NC(C)C(=O)C(F)(F)C(=O)NC(C(=O)NC(C(=O)OC)C(C)CC)C(C)C (centres unmarked) [γ-secretase inhibitor II] (Boc-VI[X1]VI-OMe; configuration not given here) | – | β-catenin staining [1]: significantly decreased; β-tubulin-III staining [1]: significantly increased |
| EGF: soluble growth factor (NSDSECPLSHDGYCLHDGVCMYIEALDKYACNCVVGYIGERCQYRDLKWWELR; Epidermal growth factor; UniProt P01133 971-1023, looked up) | none duplicated the result we see from endothelial co-cultures | – |
| FGF2: soluble growth factor in basal serum-free medium | none duplicated the result we see from endothelial co-cultures | neural stem cell proliferation ([2]; FGF2 alone): promotes neural stem cell proliferation; neural stem cell self-renewal ([2]; FGF2 alone): cannot alone maintain their self-renewal |
| GM-CSF: soluble growth factor | none duplicated the result we see from endothelial co-cultures | – |
| IGF1: soluble growth factor | none duplicated the result we see from endothelial co-cultures | – |
| IL6: soluble growth factor | none duplicated the result we see from endothelial co-cultures | – |
| LIF: soluble growth factor | none duplicated the result we see from endothelial co-cultures | – |
| PDGF | none duplicated the result we see from endothelial co-cultures | – |
| Steel factor: soluble growth factor | none duplicated the result we see from endothelial co-cultures | – |
| TGFβ | none duplicated the result we see from endothelial co-cultures | – |
| VEGF | Neither factor, alone or in combination, duplicated the effect of endothelial factors | – |
